Experimental data reported in ChEMBL document CHEMBL3632542, “A computational view on the significance of E-ring in binding of (+)-arisugacin A to acetylcholinesterase” (Bioorg Med Chem Lett, 2015).
pIC50: −log10 of the molar value.

Molecular target: Acetylcholinesterase (Homo sapiens, UniProt P22303)
Experiment: Inhibition of human AChE

Sequence of Acetylcholinesterase (P22303 whole entry): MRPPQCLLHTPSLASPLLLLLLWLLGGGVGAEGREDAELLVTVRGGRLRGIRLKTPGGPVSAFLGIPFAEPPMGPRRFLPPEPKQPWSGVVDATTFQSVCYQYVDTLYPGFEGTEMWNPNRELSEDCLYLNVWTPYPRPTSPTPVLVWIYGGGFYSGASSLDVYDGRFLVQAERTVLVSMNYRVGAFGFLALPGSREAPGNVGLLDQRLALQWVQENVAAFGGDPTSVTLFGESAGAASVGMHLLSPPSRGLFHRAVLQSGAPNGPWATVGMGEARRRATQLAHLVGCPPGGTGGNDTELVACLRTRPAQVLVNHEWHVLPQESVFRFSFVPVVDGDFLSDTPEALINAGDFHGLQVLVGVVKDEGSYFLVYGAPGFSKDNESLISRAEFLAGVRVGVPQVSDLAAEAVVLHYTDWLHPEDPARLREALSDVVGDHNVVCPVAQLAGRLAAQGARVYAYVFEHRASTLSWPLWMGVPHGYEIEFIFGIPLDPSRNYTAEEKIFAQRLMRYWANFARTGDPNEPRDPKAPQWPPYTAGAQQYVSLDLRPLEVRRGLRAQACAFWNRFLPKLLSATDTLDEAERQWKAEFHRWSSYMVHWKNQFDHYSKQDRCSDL

Row | SMILES | pIC50
1 | COc1ccc(-c2cc3c(c(=O)o2)C[C@H]2[C@@](C)(CC[C@@]4(O)C(C)(C)C(=O)CC[C@]24C)O3)cc1 | 5.60
2 | COc1ccc(-c2cc3c(c(=O)o2)C[C@]2(O)[C@@]4(C)CC[C@@H](OC(C)=O)C(C)(C)[C@]4(O)CC[C@@]2(C)O3)cc1 | 5.46
3 | COc1ccc(-c2cc3c(c(=O)o2)C[C@H]2[C@@](C)(CC[C@@]4(O)C(C)(C)[C@H](O)CC[C@]24C)O3)cc1 | < 4.00
4 | COc1ccc(-c2cc3c(c(=O)o2)C[C@@H]2[C@@]4(C)CC[C@H](O)C(C)(C)[C@@H]4CC[C@@]2(C)O3)cc1 | < 4.00
5 | COc1ccc(-c2cc3c(c(=O)o2)C[C@@H]2[C@@]4(C)CCC(=O)C(C)(C)[C@@H]4CC[C@@]2(C)O3)cc1 | < 4.00
6 | COc1ccc(-c2cc3c(c(=O)o2)C[C@]2(O)[C@@]4(C)[C@@H](O)C[C@@H](OC(C)=O)C(C)(C)[C@]4(O)CC[C@@]2(C)O3)cc1 | < 4.00
7 | COc1cc(-c2cc3c(c(=O)o2)C[C@]2(O)[C@@]4(C)C(=O)C=CC(C)(C)[C@]4(O)CC[C@@]2(C)O3)cc(OC)c1O | 8.17
8 | COc1cc(-c2cc3c(c(=O)o2)C[C@]2(O)[C@@]4(C)C(=O)C=CC(C)(C)[C@]4(O)CC[C@@]2(C)O3)cc(OC)c1OC [TERRITREM B] | 8.12
